In patent US9200046B2, “Reporter system for high throughput screening of compounds and uses thereof” (priority 2011, dated 2015):
Counter-ions that a name gives are not always drawn. Like-named read-outs stand apart in the source and are kept apart here.

Molecular target: Nrf2-Keap1 complex (Homo sapiens, UniProt Q14145)
Test: cell-based
Type: cell-based
Details: for activation at 16 µM / activation at 32 µM: 3 h; for activation at 16 µM: read-out: Activation 100 nL; for activation at 32 µM: read-out: Activation 200 nL
[1] = Table 2, 100 nL compound, screen run at 16 and 32 μM, 3 hr
[2] = Table 2, 200 nL compound, screen run at 16 and 32 μM, 3 hr
[3] = Table 1A, 100 nL compound, screen run at 16 and 32 μM, 3 hr
[4] = Table 1A, 200 nL compound, screen run at 16 and 32 μM, 3 hr

Chain of Nrf2-Keap1 complex (Q14145 whole entry, one chain of several): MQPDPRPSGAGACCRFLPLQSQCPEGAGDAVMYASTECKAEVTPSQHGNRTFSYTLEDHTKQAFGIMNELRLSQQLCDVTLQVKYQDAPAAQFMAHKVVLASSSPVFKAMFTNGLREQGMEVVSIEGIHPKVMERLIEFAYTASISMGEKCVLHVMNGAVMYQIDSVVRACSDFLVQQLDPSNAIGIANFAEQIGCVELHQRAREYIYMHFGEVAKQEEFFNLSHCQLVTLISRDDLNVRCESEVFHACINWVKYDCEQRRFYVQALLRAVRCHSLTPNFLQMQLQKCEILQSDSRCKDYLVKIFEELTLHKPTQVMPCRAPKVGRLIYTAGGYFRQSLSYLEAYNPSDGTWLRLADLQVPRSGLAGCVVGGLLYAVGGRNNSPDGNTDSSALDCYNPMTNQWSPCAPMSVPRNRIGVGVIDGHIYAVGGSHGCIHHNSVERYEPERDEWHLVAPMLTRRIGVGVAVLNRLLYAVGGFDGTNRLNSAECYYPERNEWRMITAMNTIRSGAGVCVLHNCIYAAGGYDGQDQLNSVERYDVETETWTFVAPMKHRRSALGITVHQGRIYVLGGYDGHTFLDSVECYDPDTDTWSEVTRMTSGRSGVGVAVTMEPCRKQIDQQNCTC

| SMILES | activation at 16 µM | activation at 32 µM | 100 nL (luminescence) [1] | 200 nL (luminescence) [2] | also measured |
| --- | --- | --- | --- | --- | --- |
| COc1cc(O)c(C(=O)c2ccccc2)cc1O [CEAROIN] | 53% | 111% | 1076 | 2988 |  |
| Cc1cc(O)ccc1Cl [CHLOROCRESOL] | 25% | -5% |  |  |  |
| N.N.[Cl][Pt][Cl] [CISPLATIN, reference compound] |  |  | 1100 | 1496 | Activation 100 nL: 36%; Activation 200 nL: 90% |
| O=C(CC(=O)c1ccccc1)c1ccccc1 [DIBENZOYLMETHANE] | 66% | -8% |  |  | 100 nL (luminescence): 1368; 200 nL (luminescence): 204 |
| CCOC(=O)CCC(=O)O[C@H]1[C@H](O[C@@H]2[C@@H](C)[C@H](O[C@H]3C[C@@](C)(OC)[C@@H](O)[C@H](C)O3)[C@@H](C)C(=O)O[C@H](CC)[C@@](C)(O)[C@H](O)[C@@H](C)C(=O)[C@H](C)C[C@@]2(C)O)O[C@H](C)C[C@@H]1N(C)C [ERYTHROMYCINETHYLSUCCINATE, reference compound] | 41% | -20% |  |  |  |
| C[C@]12C=CC(=O)C=C1CC[C@@H]1[C@@H]2CC[C@]2(C)C(=O)CC[C@@H]12 [ANDROSTA-1,4-DIEN-3,17-DIONE] | 81% | 70% | 1444 | 2048 |  |
| COc1cc(O)c(C(=O)/C=C/c2ccc(OC)c(O)c2)c(OC)c1 [2′,3-DIHYDROXY-4,4′,6′-TRIMETHOXYCHALCONE] | 296% | 10% | 5436 | 544 |  |
| CC(C)=CCCC1(C)C=Cc2c(O)c3c(c(CC=C(C)C)c2O1)OC12C(CC4CC1C(C)(C)OC2(C/C=C(/C)C(=O)O)C4O)C3=O (stereo not drawn) [TETRAHYDROGAMBOGICACID] |  |  | 5480 | 2748 | Activation 100 nL: 383%; Activation 200 nL: 100% |
| C[C@@H]1C[C@H]2[C@@H]3CCC4=CC(=O)C=C[C@]4(C)[C@@]3(Cl)[C@@H](O)C[C@]2(C)[C@@]1(OC(=O)c1ccco1)C(=O)CCl [MOMETASONEFUROATE, reference compound] | 56% | 140% | 1508 | 2936 |  |
| CCCCCCCCCCCCCC(=O)O[C@@H]1[C@@H](C)[C@@]2(O)[C@@H](C=C(CO)C[C@]3(O)C(=O)C(C)=C[C@@H]23)[C@@H]2C(C)(C)[C@]12OC(C)=O [PHORBOLMYRISTATEACETATE, reference compound] | 47% | 16% | 776 | 712 |  |
| O=C(O)c1cc(O)c2c(c1)[C@@H]([C@H]1c3cc(C(=O)O)cc(O)c3C(=O)c3c(O[C@H]4O[C@H](CO)[C@@H](O)[C@H](O)[C@H]4O)cccc31)c1cccc(O[C@H]3O[C@H](CO)[C@@H](O)[C@H](O)[C@H]3O)c1C2=O [SENNOSIDEA, reference compound] | 141% | -24% |  |  | 100 nL (luminescence): 3204; 200 nL (luminescence): 4 |
| CC(C)c1ccc2c(c1)CC[C@H]1[C@](C)(C(N)=O)CCC[C@]21C [DEHYDROABIETAMIDE] | 66% | 135% |  |  |  |
| COc1cc2nc(N3CCN(C(=O)c4ccco4)CC3)nc(N)c2cc1OC [PRAZOSINHYDROCHLORIDE, reference compound] | 87% | 40% |  |  |  |
| CCC(=O)O[C@H]1[C@H](O[C@@H]2[C@@H](C)[C@H](O[C@H]3C[C@@](C)(OC)[C@@H](O)[C@H](C)O3)[C@@H](C)C(=O)O[C@H](CC)[C@@](C)(O)[C@H](O)[C@@H](C)C(=O)[C@H](C)C[C@@]2(C)O)O[C@H](C)C[C@@H]1N(C)C [ERYTHROMYCINESTOLATE, reference compound] | 31% | 71% |  |  |  |
| CC(C)[C@@H](C)/C=C/[C@@H](C)[C@H]1CC[C@H]2C3=CC=C4C[C@@H](O)CC[C@]4(C)[C@H]3CC[C@]12C [ERGOSTEROL] | 86% | 86% | 1676 | 1640 |  |
| COc1ccc(C(=O)/C=C/c2ccccc2)cc1 [4′-METHOXYCHALCONE] | 134% | -15% | 2400 | 102 |  |

| SMILES | activation at 16 µM | activation at 32 µM | 100 nL (luminescence) [1] | 200 nL (luminescence) [2] | also measured |
| --- | --- | --- | --- | --- | --- |
| NCCCCNCCCN [SPERMIDINETRIHYDROCHLORIDE] | 72% | 22% | 1000 | 860 |  |
| CC(C)C1=CC2=CC[C@@H]3[C@](C)(CCC[C@@]3(C)C(=O)O)[C@H]2CC1 [ABIETICACID] | 67% | 57% |  |  | 100 nL (luminescence): 1256; 200 nL (luminescence): 1748 |
| COc1ccc2c(c1)OC/C(=C/c1ccc(OC)c(OC)c1)C2=O [SAPPANONEATRIMETHYLETHER] | 246% | 93% | 3652 | 2586 |  |
| COc1cc2c(c(OC)c1OC)-c1ccc(=O)c(O)cc1[C@@H](NC(C)=O)CC2 [COLCHICEINE] | 35% | 11% | 672 | 584 |  |
| ClC1=C(Cl)C2(Cl)C3C(Cl)C(Cl)CC3C1(Cl)C2(Cl)Cl (stereo not drawn) [CHLORDANE] | 107% | 135% | 1796 | 3540 |  |
| COc1cc2c(c(OC)c1OC)-c1ccc(OC)c(=O)cc1[C@@H](NC(C)=O)CC2 [COLCHICINE, reference compound] | 49% | 24% |  |  | 100 nL (luminescence): 944; 200 nL (luminescence): 840 |
| C#C[C@]1(O)CC[C@H]2[C@@H]3CCC4=C(CCC(=O)C4)[C@H]3CC[C@@]21C [NORETHYNODREL, reference compound] | 128% | 171% |  |  | 100 nL (luminescence): 1948; 200 nL (luminescence): 3920 |
| NC(=O)c1ccc(N)nc1 [6-AMINONICOTINAMIDE] | 26% | 1% |  |  | 100 nL (luminescence) [3]: 756; 200 nL (luminescence) [4]: 344 |
| NCCc1cc(O)c(O)cc1O [OXIDOPAMINEHYDROCHLORIDE] | 107% | 124% | 1676 | 2936 |  |
| O=C(CC[N+](=O)[O-])OC[C@H]1O[C@@H](O)[C@H](OC(=O)CC[N+](=O)[O-])[C@@H](OC(=O)CC[N+](=O)[O-])[C@@H]1OC(=O)CC[N+](=O)[O-] [[…]] |  |  | 1020 | 1268 | Activation 100 nL: 75%; Activation 200 nL: 40% |
| O=C(/C=C/c1ccccc1)c1ccc(O[C@@H]2O[C@H](CO)[C@@H](O)[C@H](O)[C@H]2O)cc1O [2′,4′-DIHYDROXYCHALCONE4′-GLUCOSIDE] |  |  | 1056 | 2592 | Activation 100 nL: 33%; Activation 200 nL: 121% |
| O=C1CN(/N=C/c2ccc([N+](=O)[O-])o2)C(=O)N1 [NITROFURANTOIN, reference compound] | 30% | 47% |  |  |  |
| C=C1CC[C@H]2O[C@]2(C)CC[C@@H]2[C@@H]1CC2(C)C [CARYLOPHYLLENEOXIDE] |  |  | 874 | 488 | Activation 100 nL: 38%; Activation 200 nL: 2% |
| CC(C)c1ccc2c(c1O)CC[C@H]1C3=C(CC[C@]21C)C(=O)OC3 [TRIPTOPHENOLIDE] | 35% | -3% | 832 | 390 |  |
| CC(=O)O[C@@H]1CC2C(C)(C)C(=O)C3OC3[C@]2(C)C2CC[C@@]3(C)[C@H](c4ccoc4)OC(=O)C4OC43[C@@]21C (stereo partly drawn) [EPOXYGEDUNIN] |  |  | 784 | 988 | Activation 100 nL: 28%; Activation 200 nL: 43% |
| CC1=C(CC(=O)O)c2cc(F)ccc2/C1=C\c1ccc([S+](C)[O-])cc1 (stereo not drawn) [reference compound] | 114% | 188% |  |  | Neh2-luc reporter activation: 200%; 100 nL (luminescence) [3]: 2692; 200 nL (luminescence) [4]: 2710 |
